{"source": "patent US20240342235A1", "about": "“COMPOSITION FOR TREATING INFLAMMATORY BOWEL DISEASE, COMPRISING COMBINED EXTRACT OF ISATIDIS FOLIUM AND JUGLANS MANDSHURICA” (MTHERA PHARMA CO., LTD., priority 2021, published 2024)", "assay_type_in_all_cases": "in vivo, C57BL/6N male mice", "key": {"myeloperoxidase (MPO)": {"test_system": "myeloperoxidase (MPO)", "assay": "Myeloperoxidase (MPO) activity in large intestine tissue, Mouse MPO ELISA kit (Example 6)", "conditions": "100 mg/kg oral for 7 days, 2.5% DSS for 5 days", "method": "MPO is an enzyme mainly found in neutrophils, and the activity of MPO in tissues is an indicator of neutrophil infiltration, so it is an indicator of inflammatory response and correlates with the level of intestinal damage caused by inflammatory colitis. Therefore, in order to measure the activity of MPO according to the administration of the combined extract of the present invention, an experiment was conducted as shown in Table 3 of Example 5 above.\n2.5% dextran sulfate sodium (DSS) diluted in sterile water was administered in drinking water for a total of 5 days, and 5-aminosalicylic acid (5-ASA), which is a therapeutic agent for inflammatory bowel disease, an extract of Isatidis folium alone, an extract of Juglans mandshurica fruits alone, or the combined extract of the present invention was orally administered for a total of 7 days from 2 days prior to the day of administration with DSS. In order to measure the activity of MPO, the Mouse MPO ELISA kit (HK210-02, Hycult biotechnology) was used. […] The homogenized sample was centrifuged at 1500×g for 15 minutes to obtain a supernatant, and then the activity of MPO was measured using the supernatant."}, "[1]": {"test_system": "inflammatory bowel disease animal model (2.5% DSS)", "assay": "Length of large intestine in DSS-treated mice (Example 2)", "conditions": "100 mg/kg oral, last day of administration, negative control 5.44±0.12 cm, normal 7.48±0.30 cm", "method": "6-week-old C57BL/6N male mice were purchased and pre-bred for one week, and then they were randomly divided into a total of 5 groups of 8 mice per group, and an experiment was conducted as shown in Table 1 below. 2.5% dextran sulfate sodium (DSS) diluted in sterile water was administered in drinking water for a total of 8 days, and 5-aminosalicylic acid (5-ASA), which is a therapeutic agent for inflammatory bowel disease, or the combined extract of the present invention was orally administered for a total of 10 days from 2 days prior to the day of administration with DSS. It is known that there is a sufficient correlation between the shortened large intestine and histological changes, and the length of the large intestine is commonly used as a morphological parameter of the degree of inflammation. Therefore, in order to evaluate the length of the large intestine of the mouse according to the administration of the combined extract of the present invention, the mouse of Example 1 was sacrificed on the last day of each administration, and then the length of the large intestine was measured, and the average length is shown in FIG. 2."}, "[2]": {"test_system": "inflammatory bowel disease animal model (2.5% DSS)", "assay": "Weight and length of spleen (spleen ratio) in DSS-treated mice (Example 3)", "conditions": "100 mg/kg oral, last day of administration", "method": "6-week-old C57BL/6N male mice were purchased and pre-bred for one week, and then they were randomly divided into a total of 5 groups of 8 mice per group, and an experiment was conducted as shown in Table 1 below.\n2.5% dextran sulfate sodium (DSS) diluted in sterile water was administered in drinking water for a total of 8 days, and 5-aminosalicylic acid (5-ASA), which is a therapeutic agent for inflammatory bowel disease, or the combined extract of the present invention was orally administered for a total of 10 days from 2 days prior to the day of administration with DSS.\nA representative symptom that can occur in relation to inflammatory bowel disease includes splenitis. As such, when the spleen becomes inflamed, the size of the spleen is increased by its nature (Nutrients 2019, 11 (11), 2776), and in fact, it is known that the spleen becomes enlarged in the model of IBD induced after DSS treatment (Biol. Pharm. Bull. 43, 450-457 (2020)). Therefore, in order to evaluate the level of inflammation in the spleen of mice according to the administration of the combined extract of the present invention, the mouse of Example 1 was sacrificed on the last day of each administration, and then the weight and length of the spleen of each group compared to those of the negative control group were measured, and the spleen ratio is shown."}, "[3]": {"test_system": "inflammatory bowel disease animal model (2.5% DSS)", "assay": "Body weight change in DSS-treated mice (Example 1)", "conditions": "100 mg/kg oral, 2.5% DSS in drinking water, 7 days; body weight before DSS = 100%; negative control 89.31±2.75%, normal 105.64±0.54%", "method": "6-week-old C57BL/6N male mice were purchased and pre-bred for one week, and then they were randomly divided into a total of 5 groups of 8 mice per group, and an experiment was conducted as shown in Table 1 below. 2.5% dextran sulfate sodium (DSS) diluted in sterile water was administered in drinking water for a total of 8 days, and 5-aminosalicylic acid (5-ASA), which is a therapeutic agent for inflammatory bowel disease, or the combined extract of the present invention was orally administered for a total of 10 days from 2 days prior to the day of administration with DSS. [table] Body weight loss is a representative symptom of inflammatory bowel disease (Scientific Reports volume 10, Article number: 3829 (2020)). The body weight of the mouse was measured once a day at the same time (10 am) using an electronic scale. The rate of change in body weight of each group was obtained by summing the body weight of 8 mice per group and then dividing by 8. The average body weight immediately before the start of administration of 2.5% DSS in drinking water was set as 100%, and the average body weight of each group was calculated every day to measure the rate of change in body weight. Significance was verified by performing a Student's T test for each group between the negative control group to which 2.5% DSS was administered in drinking water and the experimental group."}, "[4]": {"test_system": "inflammatory bowel disease-induced mouse model (2.5% DSS)", "assay": "Disease activity index (DAI) evaluation II, combined vs single extracts (Example 5)", "conditions": "100 mg/kg oral, 2.5% DSS for 5 days, 5 days after administration", "method": "In order to evaluate whether the combined extract has a synergistic effect compared to that of individual use of an extract of […] folium and an extract of Juglans mandshurica fruits, 6-week-old C57BL/6N male mice were purchased and pre-bred for one week, and then they were randomly divided into a total of 6 groups of 7 mice per group, and an experiment was conducted as shown in Table 3 below. [table] 2.5% dextran sulfate sodium (DSS) diluted in sterile water was administered in drinking water for a total of 5 days, and 5-aminosalicylic acid (5-ASA), which is a therapeutic agent for inflammatory bowel disease, an extract of […] folium alone, an extract of Juglans mandshurica fruits alone, or the combined extract of the present invention was orally administered for a total of 7 days from 2 days prior to the day of administration with DSS. In addition, the disease activity index was measured in the same manner as the method used in Table 2 above, and the results 5 days after administration are shown in FIG. 5."}}}
{"smiles": "Nc1ccc(O)c(C(=O)O)c1", "note": "[5-ASA, 5-aminosalicylic acid]", "values": [{"measurement": "decrease of the activity of MPO compared to negative control group", "setting": "myeloperoxidase (MPO)", "value": 9.6, "unit": "%"}, {"measurement": "length of the large intestine", "setting": "[1]", "value": "5.28±0.08", "unit": "cm"}, {"measurement": "weight and length of the spleen compared to negative control group", "setting": "[2]", "value": "decreased"}, {"measurement": "rate of change in body weight", "setting": "[3]", "value": "91.38±2.01", "unit": "%"}, {"measurement": "disease activity index compared to negative control group", "setting": "[4]", "value": "decreased"}]}
